Test results published in patent US9920075B2, “Triazolopyridine and triazolopyrimidine inhibitors of myeloperoxidase” (BRISTOL-MYERS SQUIBB COMPANY, priority 2014, dated 2018).
Where “and” joins values, the source holds several entries; their conditions need not be identical. Equal entries are not always repeated.

biological target: T1, myeloperoxidase (MPO) (Homo sapiens, UniProt P05164); experiment: MPO peroxidation assay (Amplex Red assay); type: biochemical; details: MPO peroxidation (Amplex Red), ranges given; read-out: MPO peroxidation assay IC50 values (binned)
T1 sequence (P05164 49-745): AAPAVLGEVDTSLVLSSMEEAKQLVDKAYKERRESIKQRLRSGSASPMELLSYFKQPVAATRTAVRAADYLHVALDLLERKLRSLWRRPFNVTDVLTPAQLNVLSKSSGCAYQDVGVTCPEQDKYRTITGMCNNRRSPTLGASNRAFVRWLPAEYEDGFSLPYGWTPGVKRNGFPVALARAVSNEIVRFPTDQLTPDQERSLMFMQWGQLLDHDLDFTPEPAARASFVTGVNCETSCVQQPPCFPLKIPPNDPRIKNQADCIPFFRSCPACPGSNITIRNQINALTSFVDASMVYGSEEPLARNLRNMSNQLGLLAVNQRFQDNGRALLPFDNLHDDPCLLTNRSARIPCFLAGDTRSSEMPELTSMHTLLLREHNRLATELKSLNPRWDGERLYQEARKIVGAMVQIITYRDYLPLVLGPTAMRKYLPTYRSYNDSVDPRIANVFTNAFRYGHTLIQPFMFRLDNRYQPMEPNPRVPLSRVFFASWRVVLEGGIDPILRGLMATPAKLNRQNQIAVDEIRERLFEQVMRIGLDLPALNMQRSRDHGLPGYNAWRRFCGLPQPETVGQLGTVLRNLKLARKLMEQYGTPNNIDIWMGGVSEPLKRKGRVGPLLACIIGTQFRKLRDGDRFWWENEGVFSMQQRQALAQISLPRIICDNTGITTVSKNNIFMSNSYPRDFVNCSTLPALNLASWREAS
Description: MPO Peroxidation Assay (Amplex Red Assay)
MPO peroxidation activity was measured in 100 mM KPi (pH 7.4) by utilizing the non-fluorescent reagent Amplex Red (Invitrogen Cat. #A12222) which can be oxidized to the highly fluorescent resorufin. Amplex Red is oxidized by the peroxidase action of MPO to resorufin. […] Enzyme and compound were preincubated for ten minutes at room temperature.
After the ten minute preincubation, 25 μL of an Amplex Red mixture containing 200 μM Amplex Red and 10 mM H2O2 was added to the plate.
IC50 values were calculated by determining the slope of the linear portion of the kinetic trace (180-540 secs), and using that calculated slope to determine % inhibition occurring at each concentration of inhibitor using the following equation:
[formula] where A=minimal Y value (activity level of inhibited sample), B=maximal Y value (activity level of uninhibited sample), C=Log IC50, D=Hill Slope, x=concentration of inhibitor. MPO Chlorination Assay (APF Assay)

| Structure (SMILES) | IC50 |
| --- | --- |
| Cn1nc(COc2cc(N)nc3[nH]nnc23)cc1-c1ccc(CO)nc1 [Example 103, (5-(3-(((5-amino-3H-[1,2,3]triazolo[4,5-b]pyridin-7-yl)oxy)methyl)-1-methyl-1H-pyrazol-5-yl)pyridin-2-yl)methanol] | 60 to 150 nM |
| Nc1nc(OCc2cccc3cccnc23)c2nn[nH]c2n1 [Example 114, 7-(quinolin-8-ylmethoxy)-3H-[1,2,3] triazolo[4,5-d]pyrimidin-5-amine] | 60 to 150 nM |
| Nc1cc(OCc2ccc(Br)cn2)c2nn[nH]c2n1 [Example 92, 7-((5-Bromopyridin-2-yl)methoxy)-3H-[1,2,3]triazolo[4,5-b]pyridin-5-amine] | 60 to 150 nM |
| Cc1nn(-c2ccc(Br)cc2)nc1COc1cc(N)nc2[nH]nnc12 [Example 58, 7-((2-(4-Bromophenyl)-5-methyl-2H-1,2,3-triazol-4-yl)methoxy)-3H-[1,2,3]triazolo[4,5-b]pyridin-5-amine] | 150 to 1000 nM |
| N#Cc1nn(-c2ccccc2)nc1COc1cc(N)nc2[nH]nnc12 [Example 65, 5-(((5-Amino-3H-[1,2,3]triazolo[4,5-b]pyridin-7-yl)oxy)methyl)-2-phenyl-2H-1,2,3-triazole-4-carbonitrile] | ≤ 60 nM |
| Nc1cc(OCc2csc(-c3ccccc3)n2)c2nn[nH]c2n1 [Example 42, 7-((2-Phenylthiazol-4-yl)methoxy)-3H-[1,2,3]triazolo[4,5-b]pyridin-5-amine] | 60 to 150 nM |
| COc1ncc(Br)cc1COc1cc(N)nc2[nH]nnc12 [Example 81, 7-((5-Bromo-2-methoxypyridin-3-yl)methoxy)-3H-[1,2,3]triazolo[4,5-b]pyridin-5-amine] | ≤ 60 nM |
| Cc1nn(-c2ccc(N3CCNCC3)cc2)nc1COc1cc(N)nc2[nH]nnc12 [Example 63, 7-((5-Methyl-2-(4-(piperazin-1-yl)phenyl)-2H-1,2,3-triazol-4-yl)methoxy)-3H-[1,2,3]triazolo[4,5-b]pyridin-5-amine] | 60 to 150 nM |
| Nc1cc(OCc2nnc3cccc(Cl)n23)c2nn[nH]c2n1 [Example 29, 7-((5-Chloro-[1,2,4]triazolo[4,3-a]pyridin-3-yl)methoxy)-3H-[1,2,3]triazolo [4,5-b]pyridin-5-amine] | 60 to 150 nM |
| Nc1cc(OCc2ncc(-c3ccc(C4CC4)nc3)cc2F)c2nn[nH]c2n1 [Example 101, 7-((6′-cyclopropyl-5-fluoro-[3,3′-bipyridin]-6-yl)methoxy)-3H-[1,2,3]triazolo[4,5-b] pyridin-5-amine] | ≤ 60 nM |
| Nc1cc(OCc2cc(Cl)ncc2F)c2nn[nH]c2n1 [Example 88, 7-((2-Chloro-5-fluoropyridin-4-yl)methoxy)-3H-[1,2,3]triazolo[4,5-b]pyridin-5-amine] | 60 to 150 nM |
| CN1CCN(c2ccc(-c3cc(COc4cc(N)nc5[nH]nnc45)nn3C)cn2)CC1 [Example 105, 7-((1-methyl-5-(6-(4-methylpiperazin-1-yl)pyridin-3-yl)-1H-pyrazol-3-yl)methoxy)-3H-[1,2,3]triazolo[4,5-b]pyridin-5-amine] | ≤ 60 nM |
| Nc1nc(OCc2ccc(Oc3ccccc3)nc2)c2nn[nH]c2n1 [Example 122, 7-((6-phenoxypyridin-3-yl)methoxy)-3H-[1,2,3]triazolo[4,5-d]pyrimidin-5-amine] | 60 to 150 nM |
| Nc1cc(OCc2ncc(-c3ccc(N4CCNCC4)nc3)cc2F)c2nn[nH]c2n1 [Example 99, 7-((5-fluoro-6′-(piperazin-1-yl)-[3,3′-bipyridin]-6-yl)methoxy)-3H-[1,2,3] triazolo[4,5-b]pyridin-5-amine] | ≤ 60 nM |
| Nc1nc(OCc2csc(-c3cccc(Cl)c3Cl)n2)c2nn[nH]c2n1 [Example 124, 7-((2-(2,3-dichlorophenyl)thiazol-4-yl)methoxy)-3H-[1,2,3]triazolo[4,5-d] pyrimidin-5-amine] | 60 to 150 nM and 150 to 1000 nM |
| Nc1cc(OCc2cnccc2Cl)c2nn[nH]c2n1 [Example 91, 7-((4-Chloropyridin-3-yl)methoxy)-3H-[1,2,3]triazolo[4,5-b]pyridin-5-amine] | 60 to 150 nM |
| Nc1cc(OCc2cnn(-c3ccccn3)c2)c2nn[nH]c2n1 [Example 30, 7-((1-(Pyridin-2-yl)-1H-pyrazol-4-yl)methoxy)-3H-[1,2,3]triazolo[4,5-b]pyridin-5-amine] | 60 to 150 nM |

| Structure (SMILES) | IC50 |
| --- | --- |
| Nc1cc(OCC2CCN(c3ncccn3)CC2)c2nn[nH]c2n1 [Example 84, 7-((1-(Pyrimidin-2-yl)piperidin-4-yl)methoxy)-3H-[1,2,3]triazolo[4,5-b]pyridin-5-amine] | 60 to 150 nM |
| Nc1cc(OCc2cnc(-c3ccccc3)s2)c2nn[nH]c2n1 [Example 26, 7-((2-Phenylthiazol-5-yl)methoxy)-3H-[1,2,3]triazolo[4,5-b]pyridin-5-amine] | 150 to 1000 nM |
| Cc1nn(CC2CCNC2)nc1COc1cc(N)nc2[nH]nnc12 (stereo not shown) [Example 69, 7-((5-Methyl-2-(pyrrolidin-3-ylmethyl)-2H-1,2,3-triazol-4-yl)methoxy)-3H-[1,2,3]triazolo[4,5-b]pyridin-5-amine] | 150 to 1000 nM |
| Cc1nn(Cc2ccccc2)nc1COc1cc(N)nc2[nH]nnc12 [Example 66, 7-((2-Benzyl-5-methyl-2H-1,2,3-triazol-4-yl)methoxy)-3H-[1,2,3]triazolo [4,5-b]pyridin-5-amine] | ≤ 60 nM |
| Nc1nc(OCc2cccc3ncccc23)c2nn[nH]c2n1 [Example 116, 7-(quinolin-5-ylmethoxy)-3H-[1,2,3] triazolo[4,5-d]pyrimidin-5-amine] | 60 to 150 nM |
| Nc1nc(OCc2ccc(Cl)nc2)c2nn[nH]c2n1 [Example 120, 7-((6-chloropyridin-3-yl)methoxy)-3H-[1,2,3]triazolo[4,5-d]pyrimidin-5-amine] | 150 to 1000 nM |
| Nc1cc(OCc2cc(-c3ccc(N4CCNCC4)nc3)ncc2F)c2nn[nH]c2n1 [Example 110, 7-((5-fluoro-6′-(piperazin-1-yl)-[2,3′-bipyridin]-4-yl)methoxy)-3H-[1,2,3] triazolo[4,5-b]pyridin-5-amine] | ≤ 60 nM |
| Cc1nn(C2CCNCC2)nc1COc1cc(N)nc2[nH]nnc12 [Example 68, 7-((5-Methyl-2-(piperidin-4-yl)-2H-1,2,3-triazol-4-yl)methoxy)-3H-[1,2,3]triazolo[4,5-b]pyridin-5-amine] | 60 to 150 nM |
| Cn1ncc2ccc(COc3cc(N)nc4[nH]nnc34)cc21 [Example 9, 7-((1-Methyl-1H-indazol-6-yl)methoxy)-3H-[1,2,3]triazolo[4,5-b]pyridin-5-amine] | ≤ 60 nM |
| Nc1nc(OCc2cccnc2)c2nn[nH]c2n1 [Example 113, 7-(pyridin-3-ylmethoxy)-3H-[1,2,3] triazolo[4,5-d]pyrimidin-5-amine] | 60 to 150 nM |
| Nc1cc(OCc2nc(-c3ccc(N4CCNCC4)nc3)ccc2F)c2nn[nH]c2n1 [Example 97, 7-((5-fluoro-6′-(piperazin-1-yl)-[2,3′-bipyridin]-6-yl)methoxy)-3H-[1,2,3] triazolo[4,5-b]pyridin-5-amine] | ≤ 60 nM |
| Cn1cnc2cccc(COc3cc(N)nc4[nH]nnc34)c21 [Example 36, 7-((1-Methyl-1H-benzo[d]imidazol-7-yl)methoxy)-3H-[1,2,3]triazolo[4,5-b]pyridin-5-amine] | 150 to 1000 nM |
| Nc1nc(OCc2cn(-c3ccccc3)nn2)c2nn[nH]c2n1 [Example 121, 7-((1-phenyl-1H-1,2,3-triazol-4-yl)methoxy)-3H-[1,2,3]triazolo[4,5-d] pyrimidin-5-amine] | 60 to 150 nM |
| Cn1ccc(-c2ccc(F)c(COc3cc(N)nc4[nH]nnc34)n2)n1 [Example 96, 7-((3-Fluoro-6-(1-methyl-1H-pyrazol-3-yl)pyridin-2-yl)methoxy)-3H-[1,2,3]triazolo[4,5-b]pyridin-5-amine] | ≤ 60 nM |
| Cc1oc(-c2ccc(Cl)cc2Cl)nc1COc1cc(N)nc2[nH]nnc12 [Example 39, 7-((2-(2,4-Dichlorophenyl)-5-methyloxazol-4-yl)methoxy)-3H-[1,2,3]triazolo[4,5-b]pyridin-5-amine] | ≤ 60 nM |
| Nc1nc(OCc2cccc3occc23)c2nn[nH]c2n1 [Example 112, 7-(Benzofuran-4-ylmethoxy)-3H-[1,2,3]triazolo[4,5-d]pyrimidin-5-amine] | 60 to 150 nM |

same assay, conditions: MPO peroxidation assay IC50 values (binned), MPO peroxidation (Amplex Red), ranges given

| Structure (SMILES) | IC50 |
| --- | --- |
| Nc1cc(OCc2cn(-c3ccccc3)nn2)c2nn[nH]c2n1 [Example 4, 7-((1-Phenyl-1H-1,2,3-triazol-4-yl)methoxy)-3H-[1,2,3]triazolo[4,5-b]pyridin-5-amine] | 60 to 150 nM |
